# Data taken from patent US20230286970A1, “NOVEL OXADIAZOLE-BASED SELECTIVE HDAC6 INHIBITORS” (ITALFARMACO S.P.A., priority 2020, published 2023).
# Tests used:
# [1] = biological target: recombinant human HDAC6 (Homo sapiens (Human), UniProt Q9UBN7); experiment: Enzymatic screening, HDAC6 inhibition (fluorogenic FdL_G substrate); type: biochemical
# Protocol: (§1) For each test compound, 100× concentrated DMSO solutions at 8 doses were prepared and then diluted in assay buffer (25 mM Tris-HCl, pH 8, 130 mM NaCl, 0.05% Tween-20, 10% Glycerol) to obtain 5× concentrated solutions in relation to the final concentrations (typical final concentration range—6.4-200000 nM or 0.18-50000 nM, final DMSO content—1%). Then 10 μL solution of each test compound concentration were placed on a 96-well plate in triplicate and 15 μL of 3.33× concentrated enzyme solution in the assay buffer containing 3.33× concentrated BSA (final BSA concentration—2 mg/mL for HDAC4, HDAC5 and HDAC9 or 1 mg/mL for other isoforms) and in the case of HDAC6-3.33× concentrated TCEP (final TCEP concentration—200 μM) were added to each well. After a period of preincubation (incubation times and temperatures vary for different isoforms and are shown in table 1) 25 μL of solution containing the substrate were added. As substrate, FLUOR DE LYS® deacetylase substrate (Enzo Life Sciences, cat: BML-KI104, FdL), FLUOR DE LYS®-Green substrate (Enzo Life Sciences, cat: BML-KI572, FdL_G) or Boc-Lys(Tfa)-AMC (Bachem, cat: 4060676.005, Tfal)—2× concentrated solution in assay buffer were used. Following a reaction period (reaction times and temperatures vary for different isoforms and are reported in Table 1), 50 μL of the development solution consisting of concentrate FLUOR DE LYS® developer I (Enzo Life Sciences, ca: BML-KI105), diluted 200 times in buffer (50 mM Tris-HCl, pH 8, 137 mM NaCl, 2.7 mM KCl, 1 mM MgCl2) plus 2 μM TSA was added and, after 25 minutes at room temperature in the dark, using the Victor 1420 Multilabel Counter Perkin Elmer Wallac instrument, the fluorescence reading was carried out.
# [2] = biological target: recombinant human HDAC1 (Homo sapiens (Human), UniProt Q13547); experiment: Enzymatic screening, HDAC1 inhibition (fluorogenic FdL_G substrate); type: biochemical
# Sequence of recombinant human HDAC1 (Q13547 whole entry): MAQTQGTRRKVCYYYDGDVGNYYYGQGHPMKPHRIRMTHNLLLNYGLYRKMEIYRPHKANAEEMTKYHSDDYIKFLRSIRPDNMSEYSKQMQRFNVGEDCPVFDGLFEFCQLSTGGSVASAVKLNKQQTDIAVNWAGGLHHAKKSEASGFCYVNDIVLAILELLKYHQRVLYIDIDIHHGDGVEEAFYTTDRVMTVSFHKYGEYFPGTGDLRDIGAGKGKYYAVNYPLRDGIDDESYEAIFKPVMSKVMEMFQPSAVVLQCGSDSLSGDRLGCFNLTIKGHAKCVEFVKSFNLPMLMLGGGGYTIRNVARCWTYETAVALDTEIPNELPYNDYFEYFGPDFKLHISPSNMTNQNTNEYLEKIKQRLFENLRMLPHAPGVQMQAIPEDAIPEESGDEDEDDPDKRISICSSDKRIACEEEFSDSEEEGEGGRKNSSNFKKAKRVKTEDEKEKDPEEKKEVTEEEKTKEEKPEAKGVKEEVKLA
# Protocol: as §1
# Sequence of recombinant human HDAC6 (Q9UBN7 whole entry, canonical isoform): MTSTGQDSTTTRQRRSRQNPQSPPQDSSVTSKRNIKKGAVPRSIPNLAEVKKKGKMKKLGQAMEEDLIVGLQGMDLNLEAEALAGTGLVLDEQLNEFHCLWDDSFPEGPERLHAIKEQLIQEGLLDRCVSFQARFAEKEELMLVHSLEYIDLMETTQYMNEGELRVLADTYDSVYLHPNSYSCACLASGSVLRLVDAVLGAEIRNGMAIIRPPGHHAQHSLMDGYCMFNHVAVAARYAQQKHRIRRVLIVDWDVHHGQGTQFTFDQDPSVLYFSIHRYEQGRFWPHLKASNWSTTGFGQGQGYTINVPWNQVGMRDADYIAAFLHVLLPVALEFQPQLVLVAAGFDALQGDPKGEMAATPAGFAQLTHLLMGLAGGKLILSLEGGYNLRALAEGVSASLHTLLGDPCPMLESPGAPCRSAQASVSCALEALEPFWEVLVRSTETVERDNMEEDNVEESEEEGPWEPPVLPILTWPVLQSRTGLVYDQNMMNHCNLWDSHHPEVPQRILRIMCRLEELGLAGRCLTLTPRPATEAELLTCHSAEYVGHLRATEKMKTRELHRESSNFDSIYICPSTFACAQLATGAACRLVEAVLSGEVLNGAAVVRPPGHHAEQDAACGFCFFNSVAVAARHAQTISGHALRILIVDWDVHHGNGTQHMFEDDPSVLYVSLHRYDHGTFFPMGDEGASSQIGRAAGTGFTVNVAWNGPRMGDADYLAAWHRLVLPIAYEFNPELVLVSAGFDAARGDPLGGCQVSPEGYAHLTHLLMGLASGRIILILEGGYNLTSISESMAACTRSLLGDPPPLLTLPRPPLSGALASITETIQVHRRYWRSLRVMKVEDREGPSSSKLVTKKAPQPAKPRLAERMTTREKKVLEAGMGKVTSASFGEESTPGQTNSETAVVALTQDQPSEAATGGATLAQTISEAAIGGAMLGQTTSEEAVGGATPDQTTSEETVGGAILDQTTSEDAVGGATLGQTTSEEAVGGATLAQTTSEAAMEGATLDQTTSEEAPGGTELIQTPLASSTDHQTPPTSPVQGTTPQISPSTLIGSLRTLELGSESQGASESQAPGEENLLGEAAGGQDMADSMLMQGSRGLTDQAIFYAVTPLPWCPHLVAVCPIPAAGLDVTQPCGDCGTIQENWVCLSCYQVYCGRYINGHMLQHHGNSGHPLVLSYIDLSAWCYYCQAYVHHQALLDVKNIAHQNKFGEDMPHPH
Compound,IC50 [1],IC50 [2]
"FC(F)c1nnc(-c2ccc(Cn3nnc(-c4cccc(-c5nc6c([nH]5)CCNC6)c4)n3)nc2)o1 [compound 276, 2-(difluoromethyl)-5-(6-((5-(3-(4,5,6,7-tetrahydro-1H-imidazo[4,5-c]pyridin-2-yl)phenyl)-2H-tetrazol-2-yl)methyl)pyridin-3-yl)-1,3,4-oxadiazole]",9 nM,165 µM
"CCNc1ncc2cc(-c3cn(Cc4ccc(-c5nnc(C(F)F)o5)c(F)c4)nn3)ccc2n1 [compound 395, 6-(1-(4-(5-(difluoromethyl)-1,3,4-oxadiazol-2-yl)-3-fluorobenzyl)-1H-1,2,3-triazol-4-yl)-N-ethylquinazolin-2-amine]",857 nM,1000 µM
"Nc1nc2ccc(-c3cnn(Cc4ccc(-c5nnc(C(F)F)o5)cn4)c3)cc2s1 [compound 327, 6-[1-[[5-[5-(difluoromethyl)-1,3,4-oxadiazol-2-yl]pyridin-2-yl]methyl]pyrazol-4-yl]-1,3-benzothiazol-2-amine]",40 nM,> 1000 µM
"Nc1nc2ccc(-c3cn(Cc4ccc(-c5nnc(C(F)F)o5)cc4Cl)nn3)cc2s1 [compound 340, 6-[1-[[2-chloro-4-[5-(difluoromethyl)-1,3,4-oxadiazol-2-yl]phenyl]methyl]triazol-4-yl]-1,3-benzothiazol-2-amine]",41 nM,> 1000 µM
"Nc1ccc(-c2cn(Cc3ncc(-c4nnc(C(F)F)o4)cc3F)nn2)cn1 [compound 304, 5-[1-[[5-[5-(difluoromethyl)-1,3,4-oxadiazol-2-yl]-3-fluoropyridin-2-yl]methyl]triazol-4-yl]pyridin-2-amine]",35 nM,> 1000 µM
"CC1(C)C(=O)Nc2ccc(-c3cn(Cc4ccc(-c5nnc(C(F)F)o5)cn4)nn3)cc21 [compound 324, 5-[1-[[5-[5-(difluoromethyl)-1,3,4-oxadiazol-2-yl]pyridin-2-yl]methyl]triazol-4-yl]-3,3-dimethyl-1H-indol-2-one]",18 nM,> 1000 µM
"FC(F)c1nnc(-c2ccc(Cn3cc(-c4cnc5cccnn45)nn3)cc2)o1 [compound 280, 2-(difluoromethyl)-5-(4-((4-(imidazo[1,2-b]pyridazin-3-yl)-1H-1,2,3-triazol-1-yl)methyl)phenyl)-1,3,4-oxadiazole]",89 nM,> 200 µM
"O=C(Nc1ccc(-c2cn(Cc3ncc(-c4nnc(C(F)F)o4)cn3)nn2)cn1)C(F)F [Compd. 88, N-(5-(1-((5-(5-(difluoromethyl)-1,3,4-oxadiazol-2-yl)pyrimidin-2-yl)methyl)-1H-1,2,3-triazol-4-yl)pyridin-2-yl)-2,2-difluoroacetamide]",34 nM,> 200 µM
"CC(C)(C)OC(=O)NCC(=O)Nc1cccc(-c2cn(Cc3c(F)cc(-c4nnc(C(F)F)o4)cc3F)nn2)c1 [Compd. 172, tert-butyl (2-((3-(1-(4-(5-(difluoromethyl)-1,3,4-oxadiazol-2-yl)-2,6-difluorobenzyl)-1H-1,2,3-triazol-4-yl)phenyl)amino)-2-oxoethyl)carbamate]",86 nM,> 200 µM
"[2H]C([2H])(c1ccc(-c2nnc(C(F)F)o2)cc1)n1cc(-c2ccc3nc(N)sc3c2)nn1 [compound 351, 6-[1-[dideuterio-[4-[5-(difluoromethyl)-1,3,4-oxadiazol-2-yl]phenyl]methyl]triazol-4-yl]-1,3-benzothiazol-2-amine]",21 nM,> 1000 µM
"O=C(NCc1ccco1)c1cccc(-c2nnn(Cc3ccc(-c4nnc(C(F)F)o4)cc3)n2)c1 [compound 96, 3-(2-(4-(5-(difluoromethyl)-1,3,4-oxadiazol-2-yl)benzyl)-2H-tetrazol-5-yl)-N-(furan-2-ylmethyl)benzamide]",37 nM,> 200 µM
"NC(=S)Nc1cccc(-c2cn(Cc3c(F)cc(-c4nnc(C(F)F)o4)cc3F)nn2)c1 [compound 175, 1-(3-(1-(4-(5-(difluoromethyl)-1,3,4-oxadiazol-2-yl)-2,6-difluorobenzyl)-1H-1,2,3-triazol-4-yl)phenyl)thiourea]",88 nM,> 200 µM
"O=C(Nc1ccc(-c2cn(Cc3ccc(-c4nnc(C(F)F)o4)cn3)cn2)cn1)C(F)F [compound 126, N-(5-(1-((5-(5-(difluoromethyl)-1,3,4-oxadiazol-2-yl)pyridin-2-yl)methyl)-1H-imidazol-4-yl)pyridin-2-yl)-2,2-difluoroacetamide]",49 nM,> 200 µM
"O=C1Nc2cc(-c3nnn(Cc4ccc(-c5nnc(C(F)F)o5)cc4)n3)ccc2NC12CCCC2 [compound 195, 6′-(2-(4-(5-(difluoromethyl)-1,3,4-oxadiazol-2-yl)benzyl)-2H-tetrazol-5-yl)-1′,4′-dihydro-3′H-spiro[cyclopentane-1,2′-quinoxalin]-3′-one]",104 nM,> 200 µM
"FC(F)c1nnc(-c2ccc(Cn3nnc(-c4cncc(Br)c4)n3)cc2)o1 [compound 82, 2-(4-((5-(5-bromopyridin-3-yl)-2H-tetrazol-2-yl)methyl)phenyl)-5-(difluoromethyl)-1,3,4-oxadiazole]",33 nM,> 200 µM
"O=C1CCc2c1cccc2-c1nnn(Cc2ccc(-c3nnc(C(F)F)o3)cc2)n1 [compound 208, 4-(2-(4-(5-(difluoromethyl)-1,3,4-oxadiazol-2-yl)benzyl)-2H-tetrazol-5-yl)-2,3-dihydro-1H-inden-1-one]",132 nM,> 200 µM
"Nc1nc2ccc(-c3cn(Cc4ccc(-c5nnc(C(F)F)o5)cc4)cn3)cc2s1 [compound 306, 6-[1-[[4-[5-(difluoromethyl)-1,3,4-oxadiazol-2-yl]phenyl]methyl]imidazol-4-yl]-1,3-benzothiazol-2-amine]",32 nM,> 1000 µM
"O=C(Nc1cc(-c2nnn(Cc3ccc(-c4nnc(C(F)F)o4)cc3)n2)ccc1Sc1ccccc1)N1CCOCC1 [compound 258, N-(5-(2-(4-(5-(difluoromethyl)-1,3,4-oxadiazol-2-yl)benzyl)-2H-tetrazol-5-yl)-2-(phenylthio)phenyl)morpholine-4-carboxamide]",410 nM,> 200 µM
"O=C(Nc1cccc(-c2nc(Cc3c(F)cc(-c4nnc(C(F)F)o4)cc3F)no2)c1)N1CCOCC1 [Compd. 145, N-(3-(3-(4-(5-(difluoromethyl)-1,3,4-oxadiazol-2-yl)-2,6-difluorobenzyl)-1,2,4-oxadiazol-5-yl)phenyl)morpholine-4-carboxamide]",61 nM,> 200 µM
"Fc1cc(-c2nnc(C(F)F)o2)c(F)cc1Cn1cnc(-c2ccc(NC3=NCCN3)cc2)c1 [compound 361, N-[4-[1-[[4-[5-(difluoromethyl)-1,3,4-oxadiazol-2-yl]-2,5-difluorophenyl]methyl]imidazol-4-yl]phenyl]-4,5-dihydro-1H-imidazol-2-amine]",9 nM,> 1000 µM
"Nc1cc2cc(-c3cn(Cc4ccc(-c5nnc(C(F)F)o5)cc4F)nn3)ccc2cn1 [compound 405, 6-[1-({4-[5-(difluoromethyl)-1,3,4-oxadiazol-2-yl]-2-fluorophenyl}methyl)-1H-1,2,3-triazol-4-yl]isoquinolin-3-amine]",59 nM,1000 µM
"Nc1nccc2cc(-c3nnn(Cc4ccc(-c5nnc(C(F)F)o5)cc4F)n3)ccc12 [compound 397, 6-[2-[[4-[5-(difluoromethyl)-1,3,4-oxadiazol-2-yl]-2-fluorophenyl]methyl]tetrazol-5-yl]isoquinolin-1-amine]",57 nM,1000 µM
"Cn1c(N)nc2cc(-c3cn(Cc4ccc(-c5nnc(C(F)F)o5)c(F)c4)nn3)ccc21 [compound 346, 5-[1-[[4-[5-(difluoromethyl)-1,3,4-oxadiazol-2-yl]-3-fluorophenyl]methyl]triazol-4-yl]-1-methylbenzimidazol-2-amine]",26 nM,> 1000 µM
"Nc1ccc(-c2cn(C(CCCO)c3ccc(-c4nnc(C(F)F)o4)cc3)nn2)cn1 (stereo not shown) [compound 335, 4-(4-(6-aminopyridin-3-yl)-1H-1,2,3-triazol-1-yl)-4-(4-(5-(difluoromethyl)-1,3,4-oxadiazol-2-yl)phenyl)butan-1-ol]",62 nM,> 1000 µM
"Nc1nc2cc(-c3cn(Cc4ccc(-c5nnc(C(F)F)o5)cc4)cn3)ccc2s1 [compound 300, 5-(1-(4-(5-(difluoromethyl)-1,3,4-oxadiazol-2-yl)benzyl)-1H-imidazol-4-yl)benzo[d]thiazol-2-amine]",67 nM,> 200 µM
"FC(F)c1nnc(-c2ccc(Cc3cn(-c4ccc(NC5=NCCN5)cc4)nn3)cc2)o1 [compound 316, N-(4-(4-(4-(5-(difluoromethyl)-1,3,4-oxadiazol-2-yl)benzyl)-1H-1,2,3-triazol-1-yl)phenyl)-4,5-dihydro-1H-imidazol-2-amine]",56 nM,> 1000 µM
